These results are taken from publication PMC7948648 (The Journal of Biological Chemistry, 2021).

In one series the test system is T1, PARP1.
T1 construct: To assess if these observations extend to endogenous cellular settings; endogenous in cells; host or cells: NCI-H1048 cell lysate
Further details: method as in PMID 28001384. The following applies: selectivity PARP1 over TNKS1; cited from earlier work.

The conditions of series [1]: clinical dose of 1 mg once a day; cited from earlier work.
In a further series the test system is TNKS1. Nature of the series: Biotin probe competition pulldown in NCI-H1048 cell lysate, Western blot for TNKS1. The following applies: talazoparib versus olaparib, 30 min pretreatment, biotin probes.
Series [2] concerns the molecule itself. The experiment in a line: crystal structure; TNKS1 ART domain, apo and with talazoparib, olaparib, niraparib or veliparib; sitting-drop vapor diffusion at 4 °C; several crystal forms with multiple molecules in the asymmetric unit.

As to `CN(C)CC(=O)Nc1ccc2[nH]c(=O)c3ccccc3c2c1` [PJ34], the “fold lower IC50 for PARP1 than for TNKS1” value in the series with PARP1 is on record as “over 25 fold”.
Regarding `Cn1ncnc1[C@H]1c2n[nH]c(=O)c3cc(F)cc(c23)N[C@@H]1c1ccc(F)cc1` [Talazoparib, talazoparib], the free plasma concentration in series [1] is listed as about 17 nM. The “greater ability to prevent binding to TNKS1” value with TNKS1 is “approximately 1000 fold”.

B1: tankyrase1 (TNKS1) ART domain (residues 1104-1314) (domain or fragment, UniProt O95271 1104-1314, looked up)
chain: QGTILLDLAPEDKEYQSVEEEMQSTIREHRDGGNAGGIFNRYNVIRIQKVVNKKLRERFCHRQKEVSEENHNHHNERMLFHGSPFINAIIHKGFDERHAYIGGMFGAGIYFAENSSKSNQYVYGIGGGTGCPTHKDRSCYICHRQMLFCRVTLGKSFLQFSTMKMAHAPPGHHSVIGRPSVNGLAYAEYVIYRGEQAYPEYLITYQIMKPE
notes: tankyrase1 (TNKS1, PARP5a), ART domain, residues 1104-1314; also called PARP5a; not shown: His6, N-terminal, cleaved
With B1, the binding result in series [2] is “binds”.
